Legend:
Colon SW_480 = assay: CellTiter Glo cell viability assay; format: cell-based, human; conditions: Homo sapiens; SW480/CCL-228; 11 dilutions 3-0.00001 μM; read-out: IC50
[1] = test system: Neuroblastoma CHP-212/CRL-2273; assay: CellTiter Glo cell viability assay; format: cell-based; conditions: Homo sapiens, 11 dilutions 3-0.00001 μM
Procedure: (§1) 1.7*10^3 cells/well were seeded in quadruplicates in 96-well plate after plating. Drugs were added at 5 μM and 2-fold dilutions over 18 concentrations (0.000038146-5 […] range) to generate a dose-response curve. Cell growth was assessed on day 1, 3 and 5 after drug treatments using the CellTiter Glo Luminescence Cell Viability Assay (Promega) according to manufacturer's protocol. Thermo Scientific Varioskan LUX Multimode Microplate instrument was used for plate reading. Data are expressed as mean luminescence (arbitrary units) ±S.D.
(§2) Cell Viability Assays were employed to determine the concentration of Compound 1 (KYN-001) and analogues where the response is reduced by half. For each treatment of cancer cells, 1, 2, 5, 10 and 20 μM solutions of compounds were applied. GraphPad Prism 7 software was used to fit dose response curves. Relative Luminescence Units were plotted against the log values of the doses used and the nonlinear regression model was used for data analysis.
(§3) IC50 (μM) values correspond to log(inhibitor) vs. response (four parameters) and dose-response graphs were generated using GraphPad Prism8.

[2] = test system: Colon cancer SW620/CCL-227; assay: CellTiter Glo cell viability assay; format: cell-based; conditions: Homo sapiens, SW-620, 11 dilutions 3-0.00001 μM
Procedure: as §1, §2, §3

[3] = test system: Liver cancer SNU-449/CRL-2234; assay: CellTiter Glo cell viability assay; format: cell-based; conditions: Homo sapiens, 11 dilutions 3-0.00001 μM
Procedure: as §1, §2, §3

[4] = test system: Neuroblastoma BE(2)-C/CRL-2268; assay: CellTiter Glo cell viability assay; format: cell-based; conditions: Homo sapiens, 11 dilutions 3-0.00001 μM
Procedure: as §1, §2, §3

[5] = test system: Osteosarcoma MG-63/CRL-1427; assay: CellTiter Glo cell viability assay; format: cell-based; conditions: Homo sapiens, 11 dilutions 3-0.00001 μM
Procedure: as §1, §2, §3

[6] = test system: Neuroblastoma SK-N-DZ/CRL-2149; assay: CellTiter Glo cell viability assay; format: cell-based; conditions: Homo sapiens, 11 dilutions 3-0.00001 μM
Procedure: as §1, §2, §3

[7] = test system: Muscle Ewing's Sarcoma A-673/CRL-1598; assay: CellTiter Glo cell viability assay; format: cell-based; conditions: Homo sapiens, A673, 11 dilutions 3-0.00001 μM
Procedure: as §1, §2, §3

[8] = test system: Neuroblastoma SK-N-FI/CRL-2142; assay: CellTiter Glo cell viability assay; format: cell-based; conditions: Homo sapiens, 11 dilutions 3-0.00001 μM
Procedure: as §1, §2, §3

[9] = test system: Colon cancer HT-29/HTB-38; assay: CellTiter Glo cell viability assay; format: cell-based; conditions: Homo sapiens, 11 dilutions 3-0.00001 μM
Procedure: as §1, §2, §3

[10] = test system: Cancer cells including pancreatic, bladder, kidney, colon, breast, lung, liver and osteosarcomas; assay: CellTiter Glo cell viability assay, panel of cancer cell lines; format: cell-based, human; conditions: SAR discussion based on IC50 values in Tables 1 to 5; compared with 1 [KYN-001]
How it was run: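 Cells (1.7*10^3/well) were seeded in quadruplicate and treated with 2-fold dilutions over 18 concentrations up to 5 μM, or with 1, 2, 5, 10 and 20 μM. Viability was read by CellTiter Glo luminescence on days 1, 3 and 5; half-maximal concentrations came from nonlinear regression of RLU versus log dose.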

Ewing's Sarcoma HTB-166 = assay: CellTiter Glo cell viability assay; format: cell-based, human; conditions: Homo sapiens; RD-ES/HTB-166; 11 dilutions 3-0.00001 μM; read-out: IC50
How it was run: (§4)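 Cells seeded at 1.7*10^3/well in quadruplicate; compounds at 18 two-fold dilutions from 5 μM (0.000038146-5 μM), or at 1, 2, 5, 10 and 20 μM. CellTiter Glo luminescence read on days 1, 3 and 5 after treatment. IC50 by nonlinear regression of luminescence versus log dose.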

Tongue CAL 27 = assay: CellTiter Glo cell viability assay; format: cell-based, human; conditions: Homo sapiens; CAL 27/CRL-2095; 11 dilutions 3-0.00001 μM; read-out: IC50
How it was run: as §4

Liver HepG2 = assay: CellTiter Glo cell viability assay; format: cell-based, human; conditions: Homo sapiens, HepG2; Hep G2/HB-8065; 11 dilutions 3-0.00001 μM; read-out: IC50
How it was run: as §4

[11] = test system: Hypo-pharynx UPCI: SCC152; assay: CellTiter Glo cell viability assay; format: cell-based, human; conditions: Homo sapiens; UPCI: SCC152/CRL-3240; 11 dilutions 3-0.00001 μM; read-out: IC50
How it was run: as §4

Lung NCI-H1437 = assay: CellTiter Glo cell viability assay; format: cell-based, human; conditions: Homo sapiens; NCI-H1437/CRL-5872; 11 dilutions 3-0.00001 μM; read-out: IC50
How it was run: as §4

Bladder T24 = assay: CellTiter Glo cell viability assay; format: cell-based, human; conditions: Homo sapiens; T24/HTB-4; 11 dilutions 3-0.00001 μM; read-out: IC50
How it was run: as §4

Pharynx FADU = assay: CellTiter Glo cell viability assay; format: cell-based, human; conditions: Homo sapiens; Fadu/HTB-43; 11 dilutions 3-0.00001 μM; read-out: IC50
How it was run: as §4

Breast 4T1 = assay: CellTiter Glo cell viability assay; format: cell-based; conditions: Table 5B: 11 dilutions 3-0.00001 μM; Exp N
Procedure: as §1, §2

SMILES | IC50 (Colon SW_480) [nM] | IC50 [1] [nM] | IC50 [2] [nM] | IC50 [3] [nM] | IC50 [4] [nM] | IC50 [5] [nM] | IC50 [6] [nM] | IC50 [7] [nM] | IC50 [8] [nM] | IC50 [9] [nM] | Cancer cell viability inhibition, statement in words [10] | IC50 (Ewing's Sarcoma HTB-166) [nM] | IC50 (Tongue CAL 27) [nM] | IC50 (Liver HepG2) [nM] | IC50 [11] [nM] | IC50 (Lung NCI-H1437) [nM] | IC50 (Bladder T24) [nM] | IC50 (Pharynx FADU) [nM] | IC50 (Breast 4T1) [nM]
CCOc1cc(O)cc(/C=C/c2ccc(NC=O)c(OC)c2)c1CC=C(C)C [Compound 28, (E)-N-(4-(3-Ethoxy-5-hydroxy-2-(3-methylbut-2-en-1-yl)styryl)-2-methoxyphenyl)formamide] | 30 | 3 | 18 | 10.2 | 11.2 | 4.8 | 16.4 | 112 | 9.7 | 325 | much enhanced inhibition | 65.1 | 5 | 99.1 | 20.5 | 25.9 | 22.1 | 11.8 | –
COc1cc(/C=C/c2cc(O)cc(OC)c2CC=C(C)C)ccc1NC=O [Compound 27, (E)-N-(4-(5-hydroxy-3-methoxy-2-(3-methylbut-2-en-1-yl)styryl)-2-methoxyphenyl)formamide] | 89.6 | 5.7 | 31.7 | 15.1 | 13.6 | 82.5 | 32.6 | 229 | 15.7 | 432 | – | 133 | 15 | 251 | 36.6 | 32.2 | 32.5 | 28.6 | 29.2
